In article PMC6450887, “Metabolic resistance of the D-peptide RD2 developed for direct elimination of amyloid-β oligomers” (Scientific Reports, 2019):
Non-standard residues stand in square brackets, D forms with d. Residues, ends and D or L forms follow the SMILES beside them.

What was measured:
CYP2C19 = CYP2C19 (Homo sapiens, UniProt P33261); test: CYP isoform inhibition in human liver microsomes (Cyprotex)
Protocol: (§2) The experiments were performed by Cyprotex. […] The reactions were terminated by methanol and the generated metabolites were monitored by LC-MS/MS or fluorescence. […] All assays were performed sevenfold. […] For all other substrates, the termination plates were centrifuged at 2,500 rpm and 4 °C for 30 min and aliquots of the supernatants were combined and transferred to fresh 96-well plates. Formic acid in deionized water (final concentration 0.1%) containing internal standard was added to the supernatants prior to cassette analysis by LC-MS/MS. A decrease in the formation of the metabolite compared to the vehicle control was used to calculate the IC50 values.

[1] = Stability in simulated intestinal fluid (SIF), RP-HPLC; type: in vitro ADME; conditions: simulated intestinal fluid (SIF), 150 µM, 37 °C, 24 h, read-out: unmetabolized peptide remaining (remained stable)
Protocol: (§1) The preparation of the media was performed as described before in Elfgen et al.[24]. Preparation of simulated gastric and intestinal fluid (SGF & SIF) was done according to the European Pharmacopoeia 7.0. Plasma samples were obtained from human blood of a volunteer donor. Pooled human liver microsomes were purchased from Sekisui XenoTech (Kansas City, USA; H1000, Lot: 0710494 and 1210270; H1500, Lot: 1210079), from Sigma-Aldrich (St. Louis, USA; M0692, Lot: SLBL1433V; M0567, Lot: SLBR2706V and SLBN7300V) and from Gibco, Thermo Fisher Scientific (Waltham, USA; HMMCPL, Lot: PL050; HMMCPM, Lot: PL039). Pooled Sprague Dawley rat liver microsomes were purchased from Sigma-Aldrich (St. Louis, USA; M9066, Lot: SLBN0707V) and from Gibco, Thermo Fisher Scientific (Waltham, USA; RTMCPL, Lot: RT053). Pooled cynomolgus monkey liver microsomes were purchased from Gibco, Thermo Fisher Scientific (Waltham, USA; MKMCPL, Lot: MK062) and from Sekisui XenoTech (Kansas City, USA; P2000, Lot: 1210334). The liver microsomes were diluted in an NADPH regenerating system (NRS).
For the stability tests, 150 µM RD2 or L-RD2 was incubated in SGF, SIF, human plasma and human liver microsomes in triplicate at 37 °C with slight shaking for different time periods. To prevent microbial contaminations in long-term plasma incubations, 0.1% sodium azide was added to the solutions. Microsomal long-term activity was examined by incubating microsomes without peptide for up to 24 h and adding L-RD2 after 8 and 24 h. The ability to degrade L-RD2 served as indicator for their activity. For the comparison of RD2 metabolite profiles across species, 150 µM RD2 was incubated in human, rat and cynomolgus liver microsomes at 37 °C for 2 and 24 h. […]
For sample analysis from stability tests (see 2.3), mobile phases were acetonitrile (A) and water (B) each supplemented with 0.15% trifluoroacetic acid (TFA) (v/v). The samples were measured isocratically at 10% solvent A for 30 min. […] A chromatographic metabolite profile of L-RD2 in SIF was recorded with the same mobile phases but using a gradient from 0 to 30% solvent A in 30 min.

[2] = Comparison of RD2 metabolite profiles across species: human liver microsomes; type: in vitro ADME
Protocol: as §1
For the stability tests, 150 µM RD2 or L-RD2 was incubated in SGF, SIF, human plasma and human liver microsomes in triplicate at 37 °C with slight shaking for different time periods. To prevent microbial contaminations in long-term plasma incubations, 0.1% sodium azide was added to the solutions. Microsomal long-term activity was examined by incubating microsomes without peptide for up to 24 h and adding L-RD2 after 8 and 24 h. The ability to degrade L-RD2 served as indicator for their activity. For the comparison of RD2 metabolite profiles across species, 150 µM RD2 was incubated in human, rat and cynomolgus liver microsomes at 37 °C for 2 and 24 h. The peptides were extracted by precipitating the proteins with trichloroacetic acid (TCA) and subsequent centrifugation, as described previously in Elfgen et al.[24]. Peptides immediately extracted from the media and precipitated media without peptides served as controls.
For the comparison of RD2 metabolite profiles across species (see 2.3), mobile phases were acetonitrile (A) and water (B) each supplemented with 0.1% TFA. The gradient ran from 0 to 100% solvent A and is described in detail in Table S1. The chromatographic RD2 metabolite profiles were screened for potential human-specific metabolites. RD2 and the major RD2 metabolite present after 24 h of incubation in human liver microsome batches 7 and 8, HSM-3, were purified by RP-HPLC. Mobile phases were acetonitrile (A) and water (B) each supplemented with 0.15% TFA. The samples were separated isocratically at 10% solvent A for 30 min. RD2 as well as HSM-3 were collected and the samples were freeze-dried subsequently. The amount of the purified HSM-3 was calculated based on a calibration curve of 10 to 100 µM RD2 extracted from human liver microsomes.

CYP2D6 = CYP2D6 (Homo sapiens, UniProt P10635); test: CYP isoform inhibition in human liver microsomes (Cyprotex); type: in vitro ADME
Chain of CYP2D6 (P10635 whole entry, canonical isoform): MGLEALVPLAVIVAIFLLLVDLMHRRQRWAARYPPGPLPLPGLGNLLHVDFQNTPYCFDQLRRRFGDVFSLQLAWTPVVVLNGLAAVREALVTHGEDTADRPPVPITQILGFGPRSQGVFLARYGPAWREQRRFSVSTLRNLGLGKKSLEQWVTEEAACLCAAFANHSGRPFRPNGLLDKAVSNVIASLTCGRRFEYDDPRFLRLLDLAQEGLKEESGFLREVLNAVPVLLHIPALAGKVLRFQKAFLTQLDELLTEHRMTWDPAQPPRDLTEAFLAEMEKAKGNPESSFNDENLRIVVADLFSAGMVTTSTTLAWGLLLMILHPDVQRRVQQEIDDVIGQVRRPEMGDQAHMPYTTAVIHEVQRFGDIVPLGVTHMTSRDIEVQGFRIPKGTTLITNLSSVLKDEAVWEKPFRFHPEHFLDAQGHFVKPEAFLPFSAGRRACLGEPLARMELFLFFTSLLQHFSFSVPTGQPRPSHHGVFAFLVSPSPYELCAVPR
Protocol: The experiments were performed by Cyprotex. […] All assays were performed sevenfold.

CYP1A = biological target: T1, CYP1A (Homo sapiens, UniProt P05177); test: as above
T1 sequence (P05177 2-516): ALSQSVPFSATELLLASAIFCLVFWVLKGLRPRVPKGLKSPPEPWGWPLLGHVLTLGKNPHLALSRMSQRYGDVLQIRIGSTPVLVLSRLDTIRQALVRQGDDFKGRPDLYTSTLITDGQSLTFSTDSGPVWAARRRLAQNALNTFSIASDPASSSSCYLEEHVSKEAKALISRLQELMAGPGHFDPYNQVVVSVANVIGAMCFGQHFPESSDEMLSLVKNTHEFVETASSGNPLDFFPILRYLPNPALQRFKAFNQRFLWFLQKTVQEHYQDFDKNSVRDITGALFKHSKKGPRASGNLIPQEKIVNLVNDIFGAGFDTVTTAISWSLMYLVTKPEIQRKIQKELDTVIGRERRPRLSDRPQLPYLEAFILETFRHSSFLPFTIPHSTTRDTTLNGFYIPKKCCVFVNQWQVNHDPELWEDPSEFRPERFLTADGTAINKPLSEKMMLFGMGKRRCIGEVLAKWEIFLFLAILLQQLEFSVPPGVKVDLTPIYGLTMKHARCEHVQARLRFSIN
Protocol: as §2

Chain of CYP2C19 (P33261 whole entry, canonical isoform): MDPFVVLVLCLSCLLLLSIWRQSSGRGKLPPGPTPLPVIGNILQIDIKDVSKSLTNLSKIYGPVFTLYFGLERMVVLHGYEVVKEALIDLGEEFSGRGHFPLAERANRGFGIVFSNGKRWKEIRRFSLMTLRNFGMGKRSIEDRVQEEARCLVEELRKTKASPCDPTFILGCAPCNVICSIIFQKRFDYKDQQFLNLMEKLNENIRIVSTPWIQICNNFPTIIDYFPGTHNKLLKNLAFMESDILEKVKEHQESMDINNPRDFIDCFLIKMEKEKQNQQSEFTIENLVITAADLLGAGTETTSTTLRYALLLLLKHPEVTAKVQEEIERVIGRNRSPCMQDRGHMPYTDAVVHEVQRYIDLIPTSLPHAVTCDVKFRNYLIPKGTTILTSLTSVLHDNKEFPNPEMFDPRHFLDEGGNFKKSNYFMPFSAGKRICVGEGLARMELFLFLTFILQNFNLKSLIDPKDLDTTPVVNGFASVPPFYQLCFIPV

In the case of `CC(C)C[C@@H](NC(=O)[C@H](NC(=O)[C@H]1CCCN1)[C@H](C)O)C(=O)N[C@H](Cc1c[nH]cn1)C(=O)N[C@@H](C(=O)N[C@H](Cc1c[nH]cn1)C(=O)N[C@H](CC(N)=O)C(=O)N[C@H](CCCNC(=N)N)C(=O)N[C@H](CCCNC(=N)N)C(=O)N[C@H](CCCNC(=N)N)C(=O)N[C@H](CCCNC(=N)N)C(=O)N[C@H](CCCNC(=N)N)C(N)=O)[C@H](C)O` [RD2, ptlhthnrrrrr] (H-[dP][dT][dL][dH][dT][dH][dN][dR][dR][dR][dR][dR]-NH2), the “inhibition of CYP2C19” value (CYP2C19; concentration range 0 to 25 µM) is reported as “did not inhibit”, the inhibition at 0.25 µM (CYP2C19; human, human liver microsomes) is reported as 7.64% and the inhibition at 1 µM (CYP2C19; human, human liver microsomes) is reported as 2.47%. For the same compound, the inhibition at 2.5 µM (CYP2C19; human, human liver microsomes) was 2.54%, the inhibition at 10 µM (CYP2C19; human, human liver microsomes) was -5.77% and the inhibition at 25 µM (CYP2C19; human, human liver microsomes) was -45.5%. For the same compound, the remaining at 24 h, 150 µM [1] was at least 97%, the “metabolization of RD2 after 2 h” value ([2]; human samples 1–6, 150 µM, 2 h) was “unmetabolized” and the “decrease of the intensity of the RD2 peak” value ([2]; human samples 1–6, 24 h) was 21 ± 7%. The “inhibition of CYP2D6” value (CYP2D6; concentration range 0 to 25 µM) was “did not inhibit”, the inhibition at 0.25 µM (CYP2D6; human, human liver microsomes, 0.25 µM RD2) was 1.33% and the inhibition at 1 µM (CYP2D6; human, human liver microsomes, 1 µM RD2) was 0.671%. For the same compound, the inhibition at 2.5 µM (CYP2D6; human, human liver microsomes, 2.5 µM RD2) was 3.53%, the inhibition at 10 µM (CYP2D6; human, human liver microsomes, 10 µM RD2) was -5.9% and the inhibition at 25 µM (CYP2D6; human, human liver microsomes, 25 µM RD2) was -9.57%. For the same compound, the “inhibition of CYP1A” value (CYP1A; concentration range 0 to 25 µM) was “did not inhibit”, the inhibition at 0.25 µM (CYP1A; human, human liver microsomes) was 6.18% and the inhibition at 1 µM (CYP1A; human, human liver microsomes) was 9.42%. The inhibition at 2.5 µM (CYP1A; human, human liver microsomes) was 1.34%, the inhibition at 10 µM (CYP1A; human, human liver microsomes) was -0.842% and the inhibition at 25 µM (CYP1A; human, human liver microsomes) was -0.198%.
